From patent publication US9029110B2, “Method for producing functional microbially fermented tea extract containing polyphenol derivative” (Kabushiki Kaisha Riverson, priority 2009, dated 2015)

Legend:
[1] = Test of the functions of decreasing visceral fat and increasing adiponectin (method not described); conditions: as a result of the test, no data shown
[2] = tested on: 3T3-L1 adipocytes; assay: Adiponectin secretion promoting effect, Western blotting of culture supernatant; format: cell-based; conditions: for amount of adiponectin secreted (Mean, DMSO control = 100.00): differentiated 3T3-L1 adipocytes, 3 runs
Experimental: (§1) 3T3-L1 adipocytes can be allowed to grow and maintained in a 5% CO2 environment in high-glucose DMEM containing 50 U/ml penicillin, 50 μg/ml streptomycin, and 10% FCS. The 3T3-L1 cells were subcultured in a dish of 3.5 cm in diameter until confluent and then sufficiently differentiated into adipocytes by culture for another 2 days in the presence of insulin (10 μg/ml), dexamethasone (0.25 μM), and IBMX (3-isobutyl-1-methylxanthine) (0.5 mM). Teadenol A (10 μM) or DMSO (vehicle control) was added to the sufficiently differentiated 3T3-L1 adipocytes, and each culture supernatant was collected after 8, 24, 32, and 48 hours. The amount of adiponectin secreted was determined by Western blotting method.

[3] = tested on: PTP1B; assay: PTP1B expression inhibitory effect, Western blotting; format: cell-based
Experimental: as §1
Teadenol A (10 μM) or DMSO (vehicle control) was added to the sufficiently differentiated 3T3-L1 adipocytes. After culture for 8, 24, 32, and 48 hours, the cells were collected, and the amount of PTP1B […] and the amount of α-tubulin were determined by Western blotting method.

[4] = stated as 'can be confirmed', no data shown

| Compound | function on adiponectin [1] | function on visceral fat [1] | amount of adiponectin secreted (Mean, DMSO control = 100.00) ([2]; 10 μM, 8 h) | amount of adiponectin secreted (Mean, DMSO control = 100.00) ([2]; 10 μM, 24 h) | amount of adiponectin secreted (Mean, DMSO control = 100.00) ([2]; 10 μM, 32 h) | amount of adiponectin secreted (Mean, DMSO control = 100.00) ([2]; 10 μM, 48 h) | adiponectin secretion promoting activity ([2]; statistically significant difference in the samples after 24 and 48 hours, 10 μM) | PTP1B expression inhibitory activity ([3]; statistically significant difference in the samples after 32 hours, 10 μM, 3T3-L1 adipocytes) | adiponectin secretion promoting effect [2, 4] | PTP1B expression inhibitory effect [3, 4] |
| --- | --- | --- | --- | --- | --- | --- | --- | --- | --- | --- |
| C=C1C=C(C(=O)O)O[C@@H]2Cc3c(O)cc(O)cc3O[C@H]12 [Teadenol A, teadenol A] | increasing adiponectin | decreasing visceral fat | 166.00 | 214.67 | 153.33 | 147.67 | effective | effective |  |  |
| C=C1C=C(C(=O)O)O[C@@H]2Cc3c(O)cc(O)cc3O[C@@H]12 [Teadenol B, teadenol B] |  |  |  |  |  |  |  |  | effective | effective |
